# PubChem BioAssay (NCI)
#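 Five concentrations, 48 hours, 96-well plates. GI50 marks 50% less growth. TGI: total growth inhibition.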
# What was measured:
# Experiment in all cases: growth of human tumour cells (NCI), 48 h
# [1] = system: SF-295 CNS
# [2] = system: TK-10 renal
# [3] = system: HOP-62 NSCLC
# [4] = system: IGROV1 ovarian
# [5] = system: SNB-19 CNS
# [6] = system: OVCAR-8 ovarian
# [7] = system: HL-60(TB) leukemia
# [8] = system: MOLT-4 leukemia
# [9] = system: SK-MEL-5 melanoma
# [10] = system: HCT-15 colon
SMILES,TGI [1],TGI [2],TGI [3],TGI [4],TGI [5],TGI [6],TGI [7],TGI [8],GI50 [9],TGI [9],GI50 [1],GI50 [2],GI50 [3],GI50 [4],GI50 [5],GI50 [10],TGI [10],GI50 [6],GI50 [7],GI50 [8]
CC(c1ccccc1)/[N+]([O-])=C/c1ccccc1 (stereo unspecified),> 100 µM,> 100 µM,> 100 µM,> 100 µM,> 100 µM,> 100 µM,> 100 µM,> 100 µM,–,–,–,–,–,–,–,–,–,–,–,–
C[C@]12CCc3sc(Nc4ccc(O)cc4)nc3C1=CC[C@@H]1[C@@H]2CC[C@]2(C)C(=O)CC[C@@H]12,35.9 µM,4.4 µM,12.6 µM,5.02 µM,> 100 µM,> 100 µM,7.27 µM,> 100 µM,4.33 µM,31.9 µM,5.26 µM,2.01 µM,3.28 µM,1.99 µM,10.9 µM,1.66 µM,4.4 µM,3.22 µM,2.57 µM,2.38 µM
NC(=S)N/N=C1\c2ccccc2CCC1CCC1(O)CCc2ccccc2C1=O (stereo unspecified),59 µM,54.3 µM,> 100 µM,> 100 µM,> 100 µM,35.1 µM,20.6 µM,88.2 µM,–,28.3 µM,–,–,–,–,–,–,> 100 µM,–,–,–
CCOP(=O)(CN=C(c1ccccc1)c1ccccc1)OCC,> 100 µM,> 100 µM,> 100 µM,> 100 µM,> 100 µM,> 100 µM,> 100 µM,> 100 µM,–,> 100 µM,–,–,–,–,–,–,> 100 µM,–,–,–
Cc1ccc(Nc2nc(NS(=O)(=O)c3cc(C(=O)Nc4ccc(Cl)cc4)c(Cl)cc3S)n[nH]2)cc1,> 100 µM,> 100 µM,> 100 µM,> 100 µM,> 100 µM,> 100 µM,> 100 µM,> 100 µM,–,> 100 µM,–,–,–,–,–,–,> 100 µM,–,–,–
CCc1nnc(-c2nsc3ccccc23)s1,–,> 100 µM,> 100 µM,> 100 µM,> 100 µM,> 100 µM,> 100 µM,> 100 µM,–,> 100 µM,–,–,–,–,–,–,> 100 µM,–,–,–
O=C(O)CC1(CC(=O)O)Nc2ccccc2SC1=O,> 100 µM,> 100 µM,> 100 µM,> 100 µM,> 100 µM,> 100 µM,–,> 100 µM,–,> 100 µM,–,–,–,–,–,–,> 100 µM,–,–,–
O=C(O)CC1OCC=C2CN3CCC45C6=CC(=O)C(=O)C([N+](=O)[O-])=C6NC4C1C2CC35 (stereo unspecified),> 100 µM,> 100 µM,> 100 µM,> 100 µM,> 100 µM,> 100 µM,> 100 µM,> 100 µM,–,> 100 µM,–,–,–,–,–,–,> 100 µM,–,–,–
CC(CCC(=O)O)C1CCC2C3C(O)CC4CC(O)CCC4(C)C3CC(O)C12C (stereo unspecified),> 100 µM,> 100 µM,> 100 µM,> 100 µM,> 100 µM,> 100 µM,> 100 µM,> 100 µM,–,> 100 µM,–,–,–,–,–,–,> 100 µM,–,–,–
COC1=CC(=O)c2c(O)c3c(c(O)c2C1=O)C=C(C)OC3O (stereo unspecified),5.06 µM,7.9 µM,7.04 µM,5.57 µM,7.12 µM,2.82 µM,> 23 µM,5.04 µM,–,0.66 µM,–,–,–,–,–,–,2.07 µM,–,–,–
CN1CCN(c2cc(-c3cc4ccccc4o3)oc(=O)c2C#N)CC1,> 100 µM,> 100 µM,–,> 100 µM,> 100 µM,> 100 µM,> 100 µM,> 100 µM,–,> 100 µM,–,–,–,–,–,–,> 100 µM,–,–,–
COc1ccc(-c2c3c(nc4nc(SC)nc(SC)c24)CCCC3)cc1OC,> 100 µM,> 100 µM,> 100 µM,> 100 µM,> 100 µM,–,51.4 µM,> 100 µM,–,> 100 µM,–,–,–,–,–,–,> 100 µM,–,–,–
CC1OC1C(=O)C1(O)C(C)C(O)C23OC2(C(O)c2c(O)cccc2C3=O)C1O (stereo unspecified),0.693 µM,–,0.462 µM,0.775 µM,0.742 µM,1.72 µM,0.383 µM,0.495 µM,–,0.534 µM,–,–,–,–,–,–,0.926 µM,–,–,–
C/C(=N\NC(=S)Nc1ccc(C)cc1)c1nc2ncccc2[nH]1,–,37 µM,39.2 µM,17.3 µM,> 100 µM,12.3 µM,–,17.6 µM,–,4.73 µM,–,–,–,–,–,–,19.4 µM,–,–,–
